Where two headings read alike, the source gives them in different places.
Key:
HepG2 = conditions: human, hepg2 cells, 48 h
in vitro [1] = conditions: human
in vitro [2] = conditions: human, hepg2 cells
[3] = test system: Plasmodium falciparum Dd2 asexual blood stage parasites; assay: microbe, parasite or virus in culture; parameters: species or system Plasmodium falciparum Dd2 in human erythrocytes; single determination (one 11-point concentration-response curve); conditions: Plasmodium falciparum, DD2, Erythrocyte, 72 h
[4] = test system: P. berghei-ANKA-GFP-LucCON liver stage parasites in HepG2-A16-CD81EGFP cells; assay: P. berghei liver stage Pb-Luc assay, Method 1 (UCSD, 1536-well); format: cell-based, Plasmodium berghei; conditions: Method 1; for Max Resp (signal direction of the dose response): Decrease = decreasing P. berghei viability with dose, Increase = increasing signal, Inactive = no dose response
[5] = HepG2-A16-CD81EGFP cells, uninfected
[6] = Plasmodium berghei, Hill fit, 50% of maximum activity response, read-out: AC50
[7] = Plasmodium berghei, log10 of molar AC50 from Hill fit, read-out: Log AC50 (converted)

Log AC50 (M) (HepG2) | Structure (SMILES) | CC50 at 48 h (in vitro [2]) | AC50 ([3]; read-out: AC50) | further results
-4.3643 M | CCc1ccc(Nc2cc(=O)n(C3CCCCC3)c(=O)[nH]2)cc1 [MLS000094379-01] | 43.2 µM |  | viability at 66 h (in vitro [1]; [5]): 104%
-4.9143 M | Cc1cccc(Oc2nc(-c3ccccn3)nc3ccccc23)c1 [MLS000769548-01] | 12.2 µM | 7.5 µM | viability at 48 h (in vitro [1]; [5]): 106%; viability at 48 h, 1 µM (in vitro [1]; [5]): 106%
-4.6143 M | CN1CCN(c2ccc(Nc3ccnc4cc(Cl)ccc34)cc2)CC1 [MLS001203414-01] | 24.3 µM | 0.188 µM | viability at 48 h, 1 µM (in vitro [1]; [5]): 86%; viability at 48 h, 3 µM (in vitro [1]; [5]): 90%
-4.3643 M | CCNc1nc(NC(C)(C)C)nc(N2CCCC2)n1 [MLS000528993-01] | 43.2 µM | 2.37 µM | viability at 66 h (in vitro [1]; [5]): 99.9%
-5.1143 M | CC1(C)N=C(N)N=C(N)N1c1ccc(OCCCOc2ccccc2)c(Cl)c1 [MLS000738223-01] | 7.69 µM | 2.99 µM | viability at 48 h, 1 µM (in vitro [1]; [5]): 39%; viability at 48 h, 3 µM (in vitro [1]; [5]): 32%
-4.3643 M | c1ccc(-[n+]2nc(Nc3cccc4ccccc34)sc2-c2c3ccccc3cc3ccccc23)cc1 [MLS000949879-01] | 43.2 µM | 5.96 µM | viability at 66 h (in vitro [1]; [5]): 95.1%
-4.4643 M | N=c1ccn(Cc2ccc(Cl)cc2)cc1 [MLS000080110-01] | 34.3 µM | 8.41 µM | viability at 66 h (in vitro [1]; [5]): 101%
-4.5143 M | CCN(CC)CCn1c(=N)n(CC(=O)c2ccc(Br)s2)c2ccccc21 [MLS001045932-01] | 30.6 µM | 5.31 µM | viability at 48 h, 1 µM (in vitro [1]; [5]): 91%; viability at 48 h, 3 µM (in vitro [1]; [5]): 91%
-4.3643 M | CCOC(=O)c1sc(NC(=O)CNCc2ccccn2)c(C(=O)OCC)c1C [MLS001005083-01] | 43.2 µM |  | viability at 48 h, 1 µM (in vitro [1]; [5]): 101%; viability at 48 h, 3 µM (in vitro [1]; [5]): 96%
-4.5143 M | CC1CCCCN1CCCNC(=O)c1ccc2c(c1)sc1nc(-c3ccc(F)cc3)cn12 (centres unmarked) [NCGC00121681-01] | 30.6 µM | 1.88 µM | 
-4.3643 M | CCCCN1C(=O)c2[nH]nc(-c3ccccc3O)c2C1c1ccc(OCc2ccccc2)cc1 (centres unmarked) [NCGC00115502-01] | 43.2 µM | 5.96 µM | 
-4.4143 M | CCN(CC)CCCNC(=O)c1ccc2c(c1)N(Cc1c(F)cccc1Cl)C(=O)c1ccccc1S2 [NCGC00108146-01] | 38.5 µM | 0.944 µM | 
-4.8143 M | Cc1nc(-c2ccccn2)nc(N(C)c2ccccc2)c1Cl [MLS001182279-01] | 15.3 µM | 5.31 µM | 
-4.3643 M | Cc1ccc2nc(C)cc(Nc3ccc([N+](=O)[O-])cc3)c2c1 [MLS000710716-01] | 43.2 µM | 6.68 µM | 
-4.3643 M | CCOc1ccccc1NC(=O)Nc1ccc2nc(N3CCN(C)CC3)cc(C)c2c1 [NCGC00126491-01] | 43.2 µM | 1.33 µM | 
-4.3028 M | O[C@H]1[C@H](NCC2CCCCC2)[C@H]2CO[C@H](O2)[C@@H]1N1CCC(Cc2ccccc2)CC1 [NCGC00394729-01] | 49.8 µM | 1.37 µM | 
-4.5643 M | COc1cc(C2CC(=O)N(Cc3ccc(F)cc3)c3ccccc3S2)cc(OC)c1OC (centres unmarked) [NCGC00112401-01] | 27.3 µM | 2.11 µM | 
-4.4143 M | Cc1cccc(CN2CCCC(O)(CNCc3ncccc3C)C2=O)c1 (centres unmarked) [NCGC00429062-01] | 38.5 µM | 16.8 µM | 
-4.5643 M | CC(C)c1nc(-c2ccc(OC3CCN(C(=O)CCc4nc5ccccc5[nH]4)C3)cc2)no1 (centres unmarked) [NCGC00441007-01] | 27.3 µM | 15 µM | 
-4.4143 M | CC(C)(C)c1ccc(-c2cc(C[C@H]3CNCC[C@H]3CC(=O)N3CCN(c4ccccn4)CC3)no2)cc1 [NCGC00400637-01] | 38.5 µM | 15 µM | 
-6.0143 M | Fc1cccc(NC(S)=NNc2c3ccccc3nc3ccccc23)c1 [MLS000660813-01] | 0.968 µM | 15 µM | 
-4.3643 M | CCCCC(=O)NC(c1cccc([N+](=O)[O-])c1)c1c(OC(C)=O)ccc2ccccc12 (centres unmarked) [MLS000527046-01] | 43.2 µM | 3.76 µM | 
-4.5643 M | COc1ccc(/C=N/Nc2nc(Nc3ccccc3)nc(N3CCCC3)n2)cc1[N+](=O)[O-] [MLS000723644-01] | 27.3 µM | 6.68 µM | 
-4.4143 M | Oc1cccc(C(Nc2nccs2)c2ccc3cccnc3c2O)c1 (centres unmarked) [MLS000760926-01] | 38.5 µM | 7.5 µM | 

Structure (SMILES) | Log AC50 (M) (HepG2) | CC50 at 48 h (in vitro [2]) | AC50 ([3]; read-out: AC50) | further results
Cc1c2ccncc2c(C)c2c1[nH]c1ccccc12 [MLS001076505-01] | -4.3643 M | 43.2 µM | 3.35 µM | viability (in vitro [1]): 102%
CCc1ccc([S+](=O)([O-])c2nnn3c2nc(Nc2ccc(F)cc2)c2cc(Cl)ccc23)cc1 [NCGC00112284-01] | -4.4643 M | 34.3 µM | 2.11 µM | viability at 66 h (in vitro [1]; [5]): 105%
COc1cc(OC)c(NC2=CC(=O)C(=O)c3ccccc32)cc1Cl [MLS001198657-01] | -4.3643 M | 43.2 µM | 2.99 µM | viability at 48 h, 1 µM (in vitro [1]; [5]): 93%; viability at 48 h, 3 µM (in vitro [1]; [5]): 59%
C/C(=N\NC(=O)c1cccc(Br)c1)c1ccccn1 [MLS001232242-01] | -5.8643 M | 1.37 µM | 4.73 µM | Max Resp (signal direction of the dose response) [4]: Decrease; AC50 ([4]; Hill fit, 50% of maximum activity response, read-out: AC50): 891 nM; Log AC50 (M) ([4]; log10 of molar AC50 from Hill fit): -6.050 M; AC50 [4, 6]: 794 nM; AC50 [4, 7]: 794 nM
CCCN(CCC)CCNC(=O)c1cc2c(-c3ccc(Cl)cc3)nn(C)c2s1 [NCGC00108997-01] | -4.3643 M | 43.2 µM | 0.596 µM | viability at 48 h, 1 µM (in vitro [1]; [5]): 102%; viability at 48 h, 3 µM (in vitro [1]; [5]): 98%
Cc1nc2c(=O)n(C)c(=O)nc-2n(C)n1 [MLS000528498-01] | -6.0643 M | 0.862 µM | 0.422 µM | Max Resp (signal direction of the dose response) [4]: Decrease; AC50 [4, 6]: 56 nM; AC50 [4, 7]: 56.2 nM
COc1ccc(NC(=O)OC[C@H]2C[C@@H]3CCN2C[C@@H]3c2cc(C3CCCC3)nc(-c3ccncc3)n2)cc1 [NCGC00421346-01] | -4.3643 M | 43.2 µM | 4.22 µM | 
O=C(Nc1ccc(C(F)(F)F)cc1)N1CCN(c2ccnc3cc(Cl)ccc23)CC1 [MLS000830170-01] | -4.6143 M | 24.3 µM | 5.31 µM | 
Cc1ccc([S+](=O)([O-])NC[C@H]2C[C@@H]3CC[N@]2C[C@@H]3CN2CCc3ccccc32)cc1 [NCGC00421178-01] | -4.2528 M | 55.9 µM |  | AC50 [3]: 13.7 µM
Cc1cc(OCCn2cc(C(=O)c3ccco3)c3ccccc32)ccc1Cl [NCGC00101880-01] | -4.8143 M | 15.3 µM | 5.31 µM | 
